Reference: patent publication US7109193B2, “Tricyclic diazepines tocolytic oxytocin receptor antagonists” (Wyeth, priority 2001, dated 2006)

Molecular target: T1, human vasopressin V1a receptor subtype (Homo sapiens, UniProt P37288)
T1 construct: host or cells: CHO cells (pZeoSV vector for the Thibonnier line)
Assay: Vasopressin binding in Chinese Hamster Ovary cell membranes expressing human vasopressin V1a subtype receptors
Conditions: 100 nM, CHO cell membranes, [3H]Manning ligand, values without parentheses
Method in brief: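 Displacement of [3H]Manning ligand (8 nM working solution) from human V1a receptors in CHO cell membranes, 25–50 μg protein per well. Incubation ran 60 min at room temperature in 50 mM Tris-HCl pH 7.4 with protease inhibitors, followed by filtration and scintillation counting. Results are given as IC50 or percent inhibition.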

T1 sequence (P37288 whole entry): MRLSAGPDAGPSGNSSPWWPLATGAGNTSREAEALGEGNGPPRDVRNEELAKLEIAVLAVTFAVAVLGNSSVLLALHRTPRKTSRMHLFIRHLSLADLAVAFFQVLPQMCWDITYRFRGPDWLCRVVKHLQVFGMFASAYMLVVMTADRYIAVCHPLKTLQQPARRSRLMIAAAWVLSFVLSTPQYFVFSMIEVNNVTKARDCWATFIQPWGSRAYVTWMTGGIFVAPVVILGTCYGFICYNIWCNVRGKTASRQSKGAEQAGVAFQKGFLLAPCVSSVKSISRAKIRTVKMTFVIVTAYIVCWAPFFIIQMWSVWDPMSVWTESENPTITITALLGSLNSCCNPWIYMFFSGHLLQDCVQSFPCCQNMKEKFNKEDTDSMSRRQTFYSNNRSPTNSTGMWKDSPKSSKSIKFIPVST

SMILES | inhibition at 0.1 µM | V1a % inhibition @ 100 nM
COc1cc(C(=O)N2Cc3ccc(C(=O)NCCCn4ccnc4)n3Cc3ccccc32)ccc1-c1cccc2ccccc12 [Example 131, N-[3-(1H-Imidazol-1-yl)propyl]-10-[3-methoxy-4-(1-naphthyl)benzoyl]-10,11-dihydro-5H-pyrrolo[2,1-c][1,4]benzodiazepine-3-carboxamide] | 8% | –
COc1cccc(-c2ccc(C(=O)N3Cc4ccc(C(=O)N5CCC(N6CCCCC6)CC5)n4Cc4ccccc43)cc2C)c1 [Example 114, {10-[(2-Methyl-3′-methoxy[1,1′-biphenyl]-4-yl)carbonyl]-10,11-dihydro-5H-pyrrolo[2,1-c][1,4]benzodiazepin-3-yl}[4-(1-piperidinyl)-1-piperidinyl]methanone] | 11% | –
COc1ccccc1-c1ccc(C(=O)N2Cc3ccc(C(=O)N4CC[C@@H](N(C)C)C4)n3Cc3ccccc32)cc1 [Example 279, [(3R)-3-(Dimethylamino)pyrrolidinyl]{10-[(2′-methoxy[1,1′-biphenyl]-4-yl)carbonyl]-10,11-dihydro-5H-pyrrolo[2,1-c][1,4]benzodiazepin-3-yl}methanone] | – | 39%
COc1cccc(-c2cc(OC)c(C(=O)N3Cc4ccc(C(=O)N5CCC[C@H]5CN5CCCC5)n4Cc4ccccc43)cc2Cl)c1 [Example 268, {10-[(6-Chloro-3,3′-dimethoxy[1,1′-biphenyl]-4-yl)carbonyl]-10,11-dihydro-5H-pyrrolo[2,1-c][1,4]benzodiazepin-3-yl}[(2S)-2-(1-pyrrolidinylmethyl)pyrrolidinyl]methanone] | – | 6%

Second part, led by results:

inhibition at 0.1 µM | SMILES | V1a % inhibition @ 100 nM
50% | Cc1ccccc1-c1ccc(C(=O)N2Cc3ccc(C(=O)NCCN4CCCCC4)n3Cc3ccccc32)cc1 [Example 153, 10-[(2′-Methyl[1,1′-biphenyl]-4-yl)carbonyl]-N-[2-(1-piperidinyl)ethyl]-10,11-dihydro-5H-pyrrolo[2,1-c][1,4]benzodiazepine-3-carboxamide] | –
-3% | COc1cccc(-c2cc(OC)c(C(=O)N3Cc4ccc(C(=O)N5CCC(N6CCCC6)CC5)n4Cc4ccccc43)cc2Cl)c1 [Example 143, {10-[(6-Chloro-3,3′-dimethoxy[1,1′-biphenyl]-4-yl)carbonyl]-10,11-dihydro-5H-pyrrolo[2,1-c][1,4]benzodiazepin-3-yl}[4-(1-pyrrolidinyl)-1-piperidinyl]methanone] | –
